One may read the inhibition as the percentage by which the read-out fell short of the control. For orientation: IC50 means the concentration that gives 50% inhibition. A low value points to higher potency.

Active and inactive are the calls of the source. The calls are words filed in the database; no cut-off is given here.

These results are taken from ChEMBL document CHEMBL2321679, “Immunomodulatory activity of an anti-HSV-1 synthetic stigmastane analog” (Bioorg Med Chem, 2013).

In experiment [1] the target is Transcription factor p65 (Homo sapiens) (UniProt Q04206). As to the kind of experiment: Inhibition of NF-kappaB p65-mediated IL-8 release in HSV1 KOS infected human IOBA-NHC cells at 40 uM after 24 hrs by ELISA. It counts as cell-based. Background: In an ELISA, binding on a coated surface is turned into a signal by an enzyme label.
Transcription factor p65 (Homo sapiens), sequence (Q04206 whole entry): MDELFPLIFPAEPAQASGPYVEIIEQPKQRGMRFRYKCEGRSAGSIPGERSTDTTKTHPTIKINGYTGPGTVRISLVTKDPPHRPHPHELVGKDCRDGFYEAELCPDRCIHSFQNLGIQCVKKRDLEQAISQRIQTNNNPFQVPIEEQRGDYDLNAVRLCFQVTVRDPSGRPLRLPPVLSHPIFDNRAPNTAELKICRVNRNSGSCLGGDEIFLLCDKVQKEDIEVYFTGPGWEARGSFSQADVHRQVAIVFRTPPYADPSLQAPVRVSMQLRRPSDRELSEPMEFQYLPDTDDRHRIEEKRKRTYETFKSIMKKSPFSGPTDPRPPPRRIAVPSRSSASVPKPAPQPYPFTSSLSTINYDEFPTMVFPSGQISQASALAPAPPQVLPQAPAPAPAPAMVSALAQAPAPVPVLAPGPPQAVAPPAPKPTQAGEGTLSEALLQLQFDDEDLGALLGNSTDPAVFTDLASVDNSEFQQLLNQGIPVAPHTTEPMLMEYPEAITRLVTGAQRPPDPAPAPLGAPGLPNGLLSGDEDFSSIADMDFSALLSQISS
For experiment [2] the target is unchanged. As to the kind of experiment: Inhibition of NF-kappaB p65-mediated IL-6 release in HSV1 KOS infected human IOBA-NHC cells at 40 uM after 24 hrs by ELISA. It counts as cell-based.
The target is the same in experiment [3]. The experiment can be described thus: Inhibition of NF-kappaB p65 activation in HSV1 KOS infected human HCLE cells assessed as reduction of NF-kappaB p65 translocation at 40 uM after 24 hrs by indirect immunofluorescence assay. It counts as cell-based.
In experiment [4] the target is Transcription factor p65 (Mus musculus) (UniProt Q04207). The experiment can be described thus: Effect on NF-kappaB p65 activation in LPS-stimulated mouse J774A.1 cells assessed as NF-kappaB p65 translocation at 40 uM after 24 hrs by indirect immunofluorescence assay.
Transcription factor p65 (Mus musculus), sequence (Q04207 whole entry): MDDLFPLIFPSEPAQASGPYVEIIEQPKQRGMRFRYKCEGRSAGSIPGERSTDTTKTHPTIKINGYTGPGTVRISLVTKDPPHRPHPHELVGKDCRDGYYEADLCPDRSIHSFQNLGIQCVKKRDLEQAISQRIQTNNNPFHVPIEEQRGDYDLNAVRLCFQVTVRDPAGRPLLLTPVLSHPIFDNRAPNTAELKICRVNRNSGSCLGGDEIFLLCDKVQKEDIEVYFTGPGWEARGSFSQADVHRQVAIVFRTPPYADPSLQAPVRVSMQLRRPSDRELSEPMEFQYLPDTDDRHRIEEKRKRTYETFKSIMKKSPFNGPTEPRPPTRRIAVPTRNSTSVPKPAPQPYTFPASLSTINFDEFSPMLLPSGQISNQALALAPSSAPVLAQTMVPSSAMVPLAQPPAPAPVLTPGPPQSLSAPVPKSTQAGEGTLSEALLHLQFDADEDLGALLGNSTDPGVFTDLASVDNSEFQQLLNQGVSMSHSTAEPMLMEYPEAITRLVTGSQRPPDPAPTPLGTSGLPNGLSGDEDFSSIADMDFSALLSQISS
The target of experiment [5] is Transcription factor p65 (Homo sapiens) (UniProt Q04206). The experiment can be described thus: Inhibition of NF-kappaB p65-mediated TNFalpha release in HSV1 KOS infected human IOBA-NHC cells at 40 uM after 24 hrs by ELISA. It counts as cell-based.
For experiment [6] the target is unchanged. The experiment can be described thus: Inhibition of NF-kappaB p65 activation in HSV1 KOS infected human IOBA-NHC cells assessed as reduction of NF-kappaB p65 translocation at 40 uM after 24 hrs by indirect immunofluorescence assay. The experiment is classed as cell-based.
Experiment [7] shares this target. The experiment can be described thus: Inhibition of NF-kappaB p65-mediated IL-8 release in HSV1 KOS infected human HCLE cells at 40 uM after 24 hrs by ELISA. The experiment is classed as cell-based.
Experiment [8] can be described thus: Immunomodulatory activity in HSV1 KOS infected human HCLE cells assessed as increase of CXCL2 gene expression at 40 uM after 6 hrs by RT-PCR analysis relative to control. The experiment is classed as functional.
For experiment [9], the system named is J774.A1. As to the kind of experiment: Immunomodulatory activity in LPS-stimulated mouse J744A.1 cells assessed as increase of IL-10 gene expression at 40 uM after 6 hrs by RT-PCR analysis relative to control. The experiment is classed as functional.
Experiment [10] concerns J774.A1. As to the kind of experiment: Immunomodulatory activity in LPS-stimulated mouse J744A.1 cells assessed as increase of Csf1 gene expression at 40 uM after 6 hrs by RT-PCR analysis relative to control. The experiment is classed as functional.
For experiment [11], the system named is J774.A1. As to the kind of experiment: Inhibition of LPS-induced […] production in mouse J744A.1 cells at 40 uM after 24 hrs by ELISA. The conditions noted are these: J774.A1, 24 h. It counts as functional.
In experiment [12] the test system is J774.A1. The experiment can be described thus: Immunomodulatory activity in LPS-stimulated mouse J744A.1 cells assessed as decrease of Dusp2 gene expression at 40 uM after 6 hrs by RT-PCR analysis relative to control. The experiment is classed as functional.
Experiment [13] deals with J774.A1. As to the kind of experiment: Immunomodulatory activity in LPS-stimulated mouse J744A.1 cells assessed as increase of IL-6 gene expression at 40 uM after 6 hrs by RT-PCR analysis relative to control. It counts as functional.
Experiment [14] deals with J774.A1. The experiment can be described thus: Immunomodulatory activity in LPS-stimulated mouse J744A.1 cells assessed as increase of Slpi gene expression at 40 uM after 6 hrs by RT-PCR analysis relative to control. The experiment is classed as functional.
A short description of experiment [15]: Immunomodulatory activity in HSV1 KOS infected human HCLE cells assessed as increase of IL-1alpha gene expression at 40 uM after 6 hrs by RT-PCR analysis relative to control. The experiment is classed as functional.
For experiment [16], the target named is Transcription factor p65 (Homo sapiens) (UniProt Q04206). The experiment can be described thus: Effect on NF-kappaB p65-mediated TNFalpha release in human IOBA-NHC cells at 40 uM after 24 hrs by ELISA. The experiment is classed as cell-based.
The test system of experiment [17] is J774.A1. The experiment can be described thus: Immunomodulatory activity in LPS-stimulated mouse J744A.1 cells assessed as increase of TLR4 gene expression at 40 uM after 6 hrs by RT-PCR analysis relative to control. It counts as functional.
The target in experiment [18] is Transcription factor p65 (Homo sapiens) (UniProt Q04206). As to the kind of experiment: Increase of NF-kappaB p65-mediated IL-8 release in human IOBA-NHC cells at 40 uM after 24 hrs by ELISA. It counts as cell-based.
For experiment [19] the target is unchanged. As to the kind of experiment: Effect on NF-kappaB p65-mediated TNFalpha release in human HCLE cells at 40 uM after 24 hrs by ELISA. The experiment is classed as cell-based.
Experiment [20] relates to J774.A1. The experiment can be described thus: Immunomodulatory activity in LPS-stimulated mouse J744A.1 cells assessed as increase of Il12b gene expression at 40 uM after 6 hrs by RT-PCR analysis relative to control. The experiment is classed as functional.
Experiment [21] deals with Transcription factor p65 (Homo sapiens) (UniProt Q04206). As to the kind of experiment: Effect on NF-kappaB p65-mediated IL-6 release in human IOBA-NHC cells at 40 uM after 24 hrs by ELISA. It counts as cell-based.
Experiment [22] in a line: Immunomodulatory activity in HSV1 KOS infected human HCLE cells assessed as increase of IL-1RL1 gene expression at 40 uM after 6 hrs by RT-PCR analysis relative to control. The experiment is classed as functional.
Experiment [23] concerns J774.A1. As to the kind of experiment: Immunomodulatory activity in LPS-stimulated mouse J744A.1 cells assessed as increase of Socs2 gene expression at 40 uM after 6 hrs by RT-PCR analysis relative to control. It counts as functional.
The target of experiment [24] is Transcription factor p65 (Homo sapiens) (UniProt Q04206). As to the kind of experiment: Increase of NF-kappaB p65-mediated IL-8 release in human HCLE cells at 40 uM after 24 hrs by ELISA. It counts as cell-based.
For experiment [25] the target is unchanged. As to the kind of experiment: Effect on NF-kappaB p65-mediated IL-6 release in human HCLE cells at 40 uM after 24 hrs by ELISA. It counts as cell-based.
The test system of experiment [26] is J774.A1. As to the kind of experiment: Immunomodulatory activity in LPS-stimulated mouse J744A.1 cells assessed as increase of Il23a gene expression at 40 uM after 6 hrs by RT-PCR analysis relative to control. The experiment is classed as functional.
Experiment [27] deals with J774.A1. The experiment can be described thus: Inhibition of LPS-induced IL-6 production in mouse J744A.1 cells after 24 hrs by ELISA. It counts as functional, cell-based.
The subject of experiment [28] is J774.A1. As to the kind of experiment: Immunomodulatory activity in LPS-stimulated mouse J744A.1 cells assessed as increase of CXCL11 gene expression at 40 uM after 6 hrs by RT-PCR analysis relative to control. It counts as functional.
The nature of experiment [29]: Immunomodulatory activity in HSV1 KOS infected human HCLE cells assessed as increase of IL-8 gene expression at 40 uM after 6 hrs by RT-PCR analysis relative to control. The experiment is classed as functional.
For experiment [30], the system named is J774.A1. The experiment can be described thus: Immunomodulatory activity in LPS-stimulated mouse J744A.1 cells assessed as increase of Ifi47 gene expression at 40 uM after 6 hrs by RT-PCR analysis relative to control. It counts as functional.
Experiment [31] relates to J774.A1. As to the kind of experiment: Immunomodulatory activity in LPS-stimulated mouse J744A.1 cells assessed as decrease of Il1b gene expression at 40 uM after 6 hrs by RT-PCR analysis relative to control. The experiment is classed as functional.
For experiment [32], the system named is J774.A1. As to the kind of experiment: Inhibition of LPS-induced TNFalpha production in mouse J744A.1 cells after 24 hrs by ELISA. The experiment is classed as functional, cell-based.
Experiment [33] concerns J774.A1. As to the kind of experiment: Immunomodulatory activity in LPS-stimulated mouse J744A.1 cells assessed as increase of Atf3 gene expression at 40 uM after 6 hrs by RT-PCR analysis relative to control. The experiment is classed as functional.
Experiment [34] deals with J774.A1. As to the kind of experiment: Immunomodulatory activity in LPS-stimulated mouse J744A.1 cells assessed as increase of CXCL10 gene expression at 40 uM after 6 hrs by RT-PCR analysis relative to control. It counts as functional.
Experiment [35] can be described thus: Immunomodulatory activity in HSV1 KOS infected human HCLE cells assessed as increase of CSF2 (GM-CSF) gene expression at 40 uM after 6 hrs by RT-PCR analysis relative to control. The experiment is classed as functional.

Consider `C[C@@H]1C[C@H]2[C@@H]3CCC4=CC(=O)C=C[C@]4(C)[C@@]3(F)[C@@H](O)C[C@]2(C)[C@@]1(O)C(=O)CO`, for which the inhibition result in experiment [1], in [2], in [5] and in experiment [7] was “Active” each time. The inhibition entry in [3] and in [6] was “inactive” in each case. Further, in experiment [4], the Activity worked out at 100%.
Turning to `CC[C@@H](C(C)C)[C@H](O)[C@@H](O)[C@@H](C)[C@H]1CC[C@H]2[C@@H]3CCC4=CC(=O)CC[C@]4(C)[C@H]3CC[C@]12C`, the “fold change (FC)” value in [8] was found to be 2.9; with J774.A1 [9], 1.27; in the experiment on J774.A1 [10] it was 4.42; in the experiment on J774.A1 [12], 3.86; with J774.A1 [13], 1.97; in the experiment on J774.A1 [14], 1.53. For the same molecule, the “fold change (FC)” value in experiment [15] amounted to 2.9; in the experiment with J774.A1 [17], 1.95; in the experiment on J774.A1 [20], 4.19; in experiment [22], 5.2; in the experiment with J774.A1 [23], 2.29; in the experiment with J774.A1 [26], 3.19. The “fold change (FC)” value in the experiment on J774.A1 [28] is given as 6.01; in experiment [29], 4.4; with J774.A1 [30], 2.49; in the experiment with J774.A1 [31] it was 2.58; with J774.A1 [33] it was 4.41; with J774.A1 [34], 11.41. The “fold change (FC)” value in experiment [35] was 2.2. In the experiment on J774.A1 [11], the inhibition at 40 µM was 77.5%. Besides, the inhibition result in [1] and in experiment [7] was “Active” throughout. Moreover, the inhibition result in experiment [2] and in [5] was “inactive” each time. The inhibition is 5.7% in experiment [3], “Dose-dependent effect” in the experiment with J774.A1 [27], “Dose-dependent effect” in the experiment with J774.A1 [32] and 22.2% in [6]. The result in [16], in experiment [19], in experiment [21] and in experiment [25] was inactive. The result in experiment [18] and in experiment [24] was Active. In addition, the IC50 with J774.A1 [27] (J774.A1, 24 h) is > 40 µM; in the experiment with J774.A1 [32] (J774.A1, 24 h), 7 µM. Moreover, the Activity in experiment [4] turned out to be 87.9%.
